# Patent publication US4590264A, “Lipoglycosides and process of extracting same” (Wofor AG, priority 1983, dated 1986)
# Entries after “also recorded” stand apart in the source; their conditions may differ.
# How the values were obtained:
# [1] = test system: tumor cells derived from human carcinoma of the nasopharynx (KB cells); experiment: KB cell assay: cytotoxicity, cell count (alive, dead) after 48 h incubation; assay type: cell-based; conditions: for Cell count after incubation, dead / Cell count after incubation, alive: cell count before incubation = 100, Table 3; for Cell count after incubation, dead: control 0; for Cell count after incubation, alive: control 200
# Protocol: The plant is subjected to extraction in various solvents having different polarities (i.e. dielectric constants) at room temperature for a period of from 1 to 10 days. By room temperature, it is meant from about 20° C. to about 25° C. The extract-containing solvents are each tested for their biological activity. As a measure of biological activity, the cytotoxicity of the extracts against tumor cells derived from human carcinoma of the nasopharynx (KB cells) is measured. Those extracts which show the capability of killing KB cells are fractionated to yield the compounds of the present invention.
# A sample of cells was taken from a stock supply furnished by a well known commercial laboratory. The primary culture was Minimal Essential Medium (MEM), Flo Laboratories, 10% fetal calf serum. Trypsinization was conducted with 0.2% trypsin in isotonic NaCl. The cells were counted with 0.1% Tripan Blue. The cells were subcultured in a 5 to 1 split in microtiter plates at 2×10^5 cells per well. The volume of culture placed in each well was 1 ml. The cells were counted at three locations before the addition of the extract to yield an average cell count.
# Each of the extracts to be tested was added to the cells at a specific concentration as an ethanolic solution. The cells were incubated at 37° C. for 48 hours. Thereafter, the cells were again counted at three locations to provide an average cell count.
# As a control, a cell sample was incubated for the same period in culture medium and without the addition of any plant extract.
# Each of the extracts obtained above was tested for its effect on KB cells. The cell culture assay protocol described above was used.
# Solubility in solvents = assay type: physicochemical; conditions: solvents as named in the value
SMILES,"Cell count after incubation, dead ([1]; 10 μg/ml)","Cell count after incubation, alive ([1]; 10 μg/ml)","Cell count after incubation, dead ([1]; 100 μg/ml)","Cell count after incubation, alive ([1]; 100 μg/ml)",activity against KB cells / antitumor activity (in words) [1],Solubility (in words) (Solubility in solvents)
CCC1CCCCCCCCCCCCCCCCCCC(=O)OC[C@H]2O[C@@H](O1)[C@H](O)[C@@H](OC(C)=O)[C@@H]2O (stereo partly shown) [Compound II],0.5,104.5,0,0,active; also recorded: possess antitumor properties,"soluble in CH2 Cl2 and benzene but insoluble in methanol and ether; also recorded: Insoluble in methanol, ethyl ether"
CCC1CCCCCCCCCCCCCCCCCCC(=O)OC[C@H]2O[C@@H](O1)[C@H](OC(C)=O)[C@@H](O)[C@@H]2O (stereo partly shown) [Compound I],0,15,0,0,active; also recorded: possess antitumor properties,"Soluble in CHCl3, methanol; also recorded: Sparingly soluble in acetyl ethyl ether and acetone; also recorded: Insoluble in ethyl ether and petroleum ether"
"CCC(O)CCCCCCCCCCCCCCCCCCC(=O)OC (stereo not shown) [Example 5, 20-hydroxydocosanoic acid methyl ester]",–,–,–,–,–,"soluble in n-hexane, benzene and chloroform but insoluble in methanol and acetone"
